Source: patent US10597388B2, “Pyridazinone herbicides” (FMC CORPORATION, priority 2014, dated 2020)

Assays:
Type in all cases: in vivo
[1] = system: nightshade (eastern black nightshade, Solanum ptycanthum); assay: Test E greenhouse herbicide test, pre- and postemergence; details: Preemergence
Summary of the method: (§1)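 Compounds in surfactant-containing solvent are applied to soil right after sowing (silt loam) and, in parallel, to 1- to 4-leaf plants in a peat-based medium. Weed control is scored visually on a 0 (none) to 100 (complete) scale at 14 to 21 d.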

[2] = system: goosegrass (Eleusine indica); assay: as above; details: Preemergence
Summary of the method: as §1

[3] = system: ragweed (common ragweed, Ambrosia elatior); assay: as above
Summary of the method: as §1

[4] = system: field bindweed (Convolvulus arvensis); assay: as above
Summary of the method: as §1

[5] = system: panicum, fall (fall panicum, Panicum dichotomiflorum); assay: as above
Summary of the method: as §1

kochia (Kochia scoparia) = assay: as above
Summary of the method: as §1

[6] = system: surinam grass (Brachiaria decumbens); assay: as above; details: Preemergence
Summary of the method: as §1

[7] = system: sandbur (southem sandbur, Cenchrus echinatus); assay: as above
Summary of the method: as §1

[8] = system: crabgrass, Brazilian (Brazilian crabgrass, Digitaria horizontalis); assay: as above
Summary of the method: as §1

[9] = system: horseweed (Conyza canadensis); assay: as above; details: Postemergence
Summary of the method: as §1

[10] = system: crabgrass, large (large crabgrass, Digitaria sanguinalis); assay: as above; details: Preemergence
Summary of the method: as §1

[11] = system: beggarticks (hairy beggarticks, Bidens pilosa); assay: as above
Summary of the method: as §1

[12] = system: foxtail, giant (giant foxtail, Setaria faberii); assay: as above; details: Preemergence
Summary of the method: as §1

[13] = system: waterhemp (common waterhemp, Amaranthus rudis); assay: as above
Summary of the method: as §1

[14] = system: waterhemp_RES2 (ALS & HPPD resistant common waterhemp, Amaranthus rudis); assay: Test E greenhouse herbicide test, postemergence
Summary of the method: (§2)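 Postemergence spray of formulated test chemicals onto resistant waterhemp at 1- to 4-leaf stage (2–18 cm tall), grown in peat/vermiculite potting medium. Kept in greenhouse 14 to 21 d, then visually rated against untreated controls on a 0–100 scale (0 no effect, 100 complete control).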

[15] = system: waterhemp_RES1 (ALS & Triazine resistant common waterhemp, Amaranthus rudis); assay: Test E greenhouse herbicide test, postemergence
Summary of the method: as §2

[16] = 62 g ai/ha, scale 0 to 100 (0 no effect, 100 complete control)
[17] = 125 g ai/ha, scale 0 to 100 (0 no effect, 100 complete control)
[18] = 31 g ai/ha, scale 0 to 100, 0 no effect, 100 complete control
[19] = 250 g ai/ha, visual, scale 0 no effect to 100 complete control
[20] = 125 g ai/ha, visual, scale 0 no effect to 100 complete control
[21] = 62 g ai/ha, Postemergence, scale 0 to 100 (0 no effect, 100 complete control)
[22] = 62 g ai/ha, Preemergence, scale 0 to 100 (0 no effect, 100 complete control)
[23] = 125 g ai/ha, Postemergence, scale 0 to 100 (0 no effect, 100 complete control)
[24] = 125 g ai/ha, Preemergence, scale 0 to 100 (0 no effect, 100 complete control)
[25] = 250 g ai/ha, Postemergence, scale 0 to 100 (0 no effect, 100 complete control)
[26] = Postemergence, 31 g ai/ha, visual, scale 0 no effect to 100 complete control
[27] = Preemergence, 31 g ai/ha, scale 0 to 100, 0 no effect, 100 complete control
[28] = Preemergence, 250 g ai/ha, visual, scale 0 no effect to 100 complete control
[29] = Preemergence, 125 g ai/ha, visual, scale 0 no effect to 100 complete control
[30] = 250 g ai/ha, scale 0 to 100 (0 no effect, 100 complete control)
[31] = 31 g ai/ha, visual, scale 0 no effect to 100 complete control

CCc1sc2c(C)cc(C)cc2c1-c1c(O)c(C)nn(C)c1=O [Compound 57]
Plant response rating, Nightshade [1, 16]: 98 | Plant response rating, Nightshade [1, 17]: 98 | Plant response rating, Nightshade [1, 18]: 90 | Plant response rating, Nightshade [1, 19]: 98 | Plant response rating, Goosegrass [2, 16]: 0 | Plant response rating, Goosegrass [2, 18]: 10 | Plant response rating, Goosegrass [2, 20]: 5 | Plant response rating, Goosegrass [2, 19]: 5 | Plant response rating, Ragweed [3, 21]: 60 | Plant response rating, Ragweed [3, 22]: 100 | Plant response rating, Ragweed [3, 23]: 95 | Plant response rating, Ragweed [3, 24]: 100 | Plant response rating, Ragweed [3, 25]: 95 | Plant response rating, Ragweed [3, 26]: 50 | Plant response rating, Ragweed [3, 27]: 90 | Plant response rating, Ragweed [3, 28]: 100 | Plant response rating, Field Bindweed [4, 21]: 95 | Plant response rating, Field Bindweed [4, 22]: 95 | Plant response rating, Field Bindweed [4, 23]: 98 | Plant response rating, Field Bindweed [4, 25]: 95 | Plant response rating, Field Bindweed [4, 26]: 85 | Plant response rating, Field Bindweed [4, 27]: 70 | Plant response rating, Field Bindweed [4, 29]: 98 | Plant response rating, Field Bindweed [4, 28]: 100 | Plant response rating, Panicum, Fall [5, 21]: 60 | Plant response rating, Panicum, Fall [5, 22]: 98 | Plant response rating, Panicum, Fall [5, 23]: 70 | Plant response rating, Panicum, Fall [5, 24]: 100 | Plant response rating, Panicum, Fall [5, 25]: 80 | Plant response rating, Panicum, Fall [5, 26]: 40 | Plant response rating, Panicum, Fall [5, 27]: 95 | Plant response rating, Panicum, Fall [5, 28]: 100 | Plant response rating, Kochia (kochia (Kochia scoparia); [21]): 70 | Plant response rating, Kochia (kochia (Kochia scoparia); [22]): 65 | Plant response rating, Kochia (kochia (Kochia scoparia); [23]): 60 | Plant response rating, Kochia (kochia (Kochia scoparia); [25]): 75 | Plant response rating, Kochia (kochia (Kochia scoparia); [26]): 50 | Plant response rating, Kochia (kochia (Kochia scoparia); [27]): 20 | Plant response rating, Kochia (kochia (Kochia scoparia); [29]): 75 | Plant response rating, Kochia (kochia (Kochia scoparia); [28]): 100 | Plant response rating, Surinam Grass [6, 16]: 70 | Plant response rating, Surinam Grass [6, 17]: 85 | Plant response rating, Surinam Grass [6, 18]: 5 | Plant response rating, Surinam Grass [6, 19]: 95 | Plant response rating, Sandbur [7, 21]: 60 | Plant response rating, Sandbur [7, 22]: 0 | Plant response rating, Sandbur [7, 23]: 65 | Plant response rating, Sandbur [7, 24]: 30 | Plant response rating, Sandbur [7, 25]: 70 | Plant response rating, Sandbur [7, 26]: 50 | Plant response rating, Sandbur [7, 27]: 0 | Plant response rating, Sandbur [7, 28]: 80 | Plant response rating, Crabgrass, Brazil [8, 21]: 20 | Plant response rating, Crabgrass, Brazil [8, 22]: 0 | Plant response rating, Crabgrass, Brazil [8, 23]: 20 | Plant response rating, Crabgrass, Brazil [8, 25]: 30 | Plant response rating, Crabgrass, Brazil [8, 26]: 15 | Plant response rating, Crabgrass, Brazil [8, 27]: 0 | Plant response rating, Crabgrass, Brazil [8, 29]: 40 | Plant response rating, Crabgrass, Brazil [8, 28]: 70 | Plant response rating, Horseweed [9, 16]: 75 | Plant response rating, Horseweed [9, 17]: 75 | Plant response rating, Horseweed [9, 30]: 80 | Plant response rating, Horseweed [9, 31]: 60 | Plant response rating, Crabgrass, Large [10, 16]: 0 | Plant response rating, Crabgrass, Large [10, 18]: 0 | Plant response rating, Crabgrass, Large [10, 20]: 0 | Plant response rating, Crabgrass, Large [10, 19]: 0 | Plant response rating, Beggarticks [11, 21]: 100 | Plant response rating, Beggarticks [11, 22]: 100 | Plant response rating, Beggarticks [11, 23]: 100 | Plant response rating, Beggarticks [11, 25]: 100 | Plant response rating, Beggarticks [11, 26]: 100 | Plant response rating, Beggarticks [11, 27]: 100 | Plant response rating, Beggarticks [11, 29]: 100 | Plant response rating, Beggarticks [11, 28]: 100 | Plant response rating, Foxtail, Giant [12, 16]: 35 | Plant response rating, Foxtail, Giant [12, 18]: 5 | Plant response rating, Foxtail, Giant [12, 20]: 95 | Plant response rating, Foxtail, Giant [12, 19]: 95 | Plant response rating, Waterhemp [13, 21]: 50 | Plant response rating, Waterhemp [13, 22]: 75 | Plant response rating, Waterhemp [13, 23]: 30 | Plant response rating, Waterhemp [13, 24]: 40 | Plant response rating, Waterhemp [13, 25]: 75 | Plant response rating, Waterhemp [13, 26]: 50 | Plant response rating, Waterhemp [13, 27]: 80 | Plant response rating, Waterhemp [13, 28]: 80 | Plant response rating, Waterhemp_RES2 [14, 31]: 20 | Plant response rating, Waterhemp_RES2 [14, 16]: 10 | Plant response rating, Waterhemp_RES2 [14, 17]: 20 | Plant response rating, Waterhemp_RES2 [14, 30]: 50 | Plant response rating, Waterhemp_RES1 [15, 31]: 40 | Plant response rating, Waterhemp_RES1 [15, 16]: 50 | Plant response rating, Waterhemp_RES1 [15, 17]: 40 | Plant response rating, Waterhemp_RES1 [15, 30]: 60
